Measurements as given in US20260240826A1, “COMPOSITIONS FOR PD-L1 INHIBITION AND METHODS OF USE THEREOF” (ARIZONA BOARD OF REGENTS ON BEHALF OF THE UNIVERSITY OF …, priority 2023, published 2026).
Entries after “also recorded” stand apart in the source; their conditions may differ.

What was measured:
cleaved caspase-3 = cleaved caspase-3 immunohistochemistry of SKH-1 mouse skin; format: in vivo; conditions: BMS-202+SSL, 24 hr; vehicle+SSL over 60%
Description: UVB exposure was performed on AP-1 luciferase reporter mice on the SKH-1 genetic background at a dose of 2.75 kJ/m2 using FS40 bulbs (Q-Lab Corporation) as described before with the modification that mice were imaged 24 hr post UVB exposure using whole body bioluminescence instead of 48 hr post UVB using ear punches. SSL irradiation of SKH-1 mice (Charles River Laboratories, strain code 477) at a dose of 90 kJ/m2 UVA/6 kJ/m2 UVB was performed using UVA-340 bulbs (Q-Lab Corporation) as described before.
Caspase-3: Briefly, deparaffinized mouse skin slides were subjected to antigen retrieval using a Decloaking chamber in Rodent Decloaker HIER solution (both from Biocare, 115° C. 30 seconds, then 90° C. 10 seconds) followed by blocking with first 3% hydrogen peroxide (10 minutes) and then 5% normal goat serum in PBST (1 hour). Slides were then incubated in a 1:300 dilution of anti-cleaved caspase-3 antibody (#9661, Cell Signal Technology) at 4° C. overnight. […] For quantification, the average count (caspase 3-positive per total epidermal cells) in four fields/slide (20× field) was determined for each mouse skin specimen and calculated per group (n=3).
Mouse IHC data were analyzed using Kruskal-Wallis non-parametric data analysis (GraphPad Prism 10.0 software). […]

PD-L1 = assay: SSL-induced PD-L1 expression in HaCaT keratinocytes (mRNA, immunoblot); format: cell-based, human; conditions: 24 hr after SSL
Description: Human HaCaT immortalized keratinocytes were maintained in DMEM with 10% FBS and 1× penicillin/streptomycin. Cells were authenticated using STR profiling and tested for mycoplasma regularly. Cells were seeded onto […] at a density of ~200 k/dish and grown for 3 days. Prior to treatment, cells were serum starved overnight to enhance the UV responsiveness of signaling. Cells were ~80% confluent at the time of treatment. BMS-202 (10 μM) in DMSO was added to the media 1 hr prior to SSL (pretreatment).
For SSL treatment, UVA-340 bulbs (Q-Lab Corporation) were used. Before exposure, cells were washed with 1×PBS and then incubated in 4 mL PBS (with 0.01% MgCl2 and 0.01% CaCl2) during irradiation. Cells were exposed to 40 kJ/m2 UVA/2.68 kJ/m2 UVB, then rinsed once more with PBS prior to being placed back into DMEM with 1% FBS+penicillin/streptomycin and vehicle or BMS-202 (post-treatment) and incubated until harvest 24 hr later. Control cells underwent identical processing, except were held in the biosafety cabinet without UV exposure.
Cells were lysed in RIPA containing 1×HALT protease+phosphatase inhibitor cocktail (ThermoFisher Scientific) and 100 mM PMSF and protein concentrations were assessed using BCA assay (Bio-Rad). Mouse epidermal protein lysates for immunoblot analysis were derived from scraped frozen SKH-1 skins as described previously (Blohm-Mangone et al., 2018). […]

[1] = cited from earlier work

## COc1nc(OCc2cccc(-c3ccccc3)c2C)ccc1CNCCNC(C)=O [BMS-202]
Cleaved caspase-3
  percentage of epidermal cells staining positive for cleaved caspase-3: approximately 10%
PD-L1
  SSL-induced PD-L1 mRNA expression: blocked; also recorded: suppressed dose-dependently
  SSL-induced PD-L1 protein expression (immunoblot): blocked
[1]
  Log P: 3.6
